Test results reported in the Kinase Knowledgebase extract (Sharma et al. 2016).

Molecular target: MAPK14 (human) (UniProt Q16539)
Experiment: Apoptotic Activity (Eosinophils)
Details: concentration not given here

Sequence of MAPK14 (human) (Q16539 whole entry, looked up): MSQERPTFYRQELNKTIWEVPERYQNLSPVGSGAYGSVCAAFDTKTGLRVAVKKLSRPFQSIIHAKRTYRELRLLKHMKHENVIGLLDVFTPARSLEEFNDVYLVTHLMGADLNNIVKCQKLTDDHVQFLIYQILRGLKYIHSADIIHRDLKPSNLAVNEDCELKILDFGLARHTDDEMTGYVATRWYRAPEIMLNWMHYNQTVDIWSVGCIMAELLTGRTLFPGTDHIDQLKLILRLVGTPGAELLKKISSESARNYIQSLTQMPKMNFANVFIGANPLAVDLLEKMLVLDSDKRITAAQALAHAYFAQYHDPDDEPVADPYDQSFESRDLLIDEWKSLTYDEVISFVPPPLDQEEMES

| apoptosis [%] | Structure (SMILES) |
| --- | --- |
| 32.5 | CC(C(=O)O)c1ccc(-c2ccccc2)c(F)c1 (stereo not drawn) |
| 28.9 | CS(=O)(=O)Nc1cc2c(cc1-c1ccc(F)c(S)c1F)C(=O)CC2 |
| 27.7 | COc1ccc2c(c1)c(CC(=O)O)c(C)n2C(=O)c1ccc(Cl)cc1 |
